Source: PMC12418703, “Avenanthramides and avenacosides as biomarkers of oat intake: a pharmacokinetic study of solid and liquid oat consumption under single and repeated dose conditions” (Nutrition Journal, 2025)
Like-named read-outs stand apart in the source and are kept apart here.

Experiments:
[1] = Plasma pharmacokinetics after a single dose of liquid or solid oat product (compartmental PK model); assay type: in vivo, humans; parameters: V/F: unit not given here; details: for Cmax / half-life / k el / Tmax: both sexes, oral; for Cmax / half-life / k el: human, plasma; for Cmax / half-life / k el / Tmax / T1/2 / ka / V/F: single dose; for k el: elimination rate (Table 2), read-out: ke (converted); for Tmax: human plasma, derived from PK model; for V, population estimate (RSE%) / ka, population estimate (RSE%) / ke, population estimate (RSE%): Table S1 compartmental model; for ka: absorption rate (Table 2); for V/F: distribution volume over bioavailability
Description: A non-blinded, randomized two-way crossover study with two different oat products (solid or liquid) was designed to investigate the AVA and AVE PK after a single dose and after repeated dosing at three different doses, for respective food (Fig. 2). Since this is the first study of its kind, it is impossible to make any formal calculation of the number of subjects needed to show meaningful differences in plasma biomarker concentrations, since the variation is unknown. However, similar studies aimed for BFI discovery and validation of dose-response have typically used 5–30 subjects. We therefore considered 23 individuals as a good compromise between feasibility and possibilities to assess variation in biomarker concentrations, estimate pharmacokinetic parameters, dose response and performing modelling with good precision. A scientist not involved in the study, conducted the randomization using the RAR method (RandomizeR package) in R software environment and provided lists with allocated treatment sequences. The study was conducted in two phases. In the first phase, blood samples were drawn from 11 men and 12 women for 24 h after consumption of a single dose of either a solid or a liquid oat product on-site. Breakfast and lunch were also provided on-site. A single dose of solid (62 g of oat flakes) or liquid (196 mL of oat drink) containing individual AVAs and AVEs shown in Table 1 were consumed, respectively. Blood plasma samples were drawn for 24 h (0 h, 0.25 h, 0.5 h, 0.75 h, 1 h, 1.5 h, 2 h, 3 h, 4 h, 5 h, 6 h, 7 h, 8 h, 24 h). After the 24 h, at the second phase of the study, the corresponding product was further consumed three times per day for four days at either a low, medium, or high intake dose (98, 196 and 392 mL for liquid oats and 31, 62 and 123 g for oat flakes with corresponding contents of AVAs and AVEs (Table 1) in a Latin square design. Therefore, a total number of 8 participants (2 males and 6 females) were randomized to the low dose, 9 participants (3 males and 6 females) for medium dose and 6 participants (3males and 3 females) for the high dose. Participants consumed the provided products at home and were instructed to follow their habitual diets with restriction on the consumption of oat products. A list of relevant foods was provided as a guide. The oat flakes were pre-portioned into individual bags and could be consumed without heating, mixed with yoghurt, cottage cheese, sour milk or any liquid. Participants were instructed to consume the full amount, including the liquid or food the oats were mixed with. Liquid oat products were weighed prior consumption, and they were to be consumed without any additional food. In all cases the time of oat intake was recorded in a food journal. On the fifth day of phase II, a fasting sample was drawn. Fecal samples were collected at baseline and at the end of phase II of the intervention. Between each study period, there was a wash-out period of eight days where participants consumed their habitual diet. After the washout, participants started with a single dose and repeated dosing for the other product in the same way as for the first. The participants were instructed to avoid foods containing oats during the last three days prior to the start of the study and during the last three days of the wash-out period. Compliance was assessed based on information provided in a compliance journal during the study weeks as well as through 2-day food records. The oat products used in the study were provided to the participants. The flakes for the single dose were consumed with water ad lib and for the repeated dose they could be mixed with water, yoghurt, milk, sour milk or cottage cheese with the condition that all the amount of the oat product is consumed. The oat drink was consumed without any other product.
All blood samples were collected into EDTA-coated tubes by a trained nurse. […]

[2] = system: Feacalibacterium prausnitzii; assay: Association of F. prausnitzii relative abundance at baseline with Cmax and AUC strata (logistic regression); parameters: species or system humans; details: liquid, solid, or combined; single dose phase I
Description: DNA was extracted from approximately 35 mg of each of the 451 fecal samples using the NucleoSpin Soil kit (Macherey-Nagel, 740780.250 M), following the manufacturer’s instructions. DNA yield was quantified using the Qubit 1X dsDNA Broad Range assay kit (Thermo Fisher Scientific, Q33266). For metagenomic shotgun sequencing, libraries were prepared with the MGIEasy Fast FS DNA Library Prep Set (MGI Tech Co., Ltd., 940-000030-00, Werheim, Germany), using 400 ng of DNA per sample. The library preparation process included DNA shearing for 12.5 min, followed by end repair, A-tailing, and magnetic bead-based cleanup. Adapter ligation and cleanup were then performed, followed by PCR amplification and magnetic bead-based size selection of the final library product. Library quality was assessed using the Qubit 1X dsDNA HS Assay Kit (Thermo Fisher Scientific, Q33231) and the Agilent High Sensitivity D1000 Assay Kit (Agilent Technologies, 5067–5584 and 5067–5585, Santa Clara, CA, USA). Pooled libraries were circularized, barcoded, and used as templates for DNA nanoball preparation. The nanoballs were then analyzed on the DNBSEQ-T7 platform (MGI Tech Co., Ltd.) using the DNBSEQ-T7RS High-throughput Sequencing Set (FCL PE150), according to the manufacturer’s guidelines.
Raw metagenomic reads underwent quality control to remove low-quality sequences, adapters, and contaminants using Fastp (version 0.23.2, default parameters). High-quality reads were filtered to exclude human reads (GRCh38_noalt_as) using Bowtie2 [38] (version 2.5.3). The quality-filtered reads were then aligned to the taxonomy database using MetaPhlAn (version 4.0.6, default parameters) to generate relative abundance profiles. For inclusion in the analysis, a species was required to be present in at least three samples.
For the seven metabolites AVE A, AVE B, AVA 2c, AVA 2f, AVA 2fd, AVA 2p, AVA 2pd analysed at phase I after the single dose of oat products, Cmax and area under the curve (AUC) were stratified based on less than the median or more or equal to the […]. Thereafter, for each metabolite, it was investigated whether the relative abundance of F. prausnitzii at baseline could predict the strata since this bacterium has previously been reported to be responsible for production of their dihydro-metabolites. Logistic regression with a binomial distribution and a logistic link function was used to separately analyze the liquid and solid products. When analyzing liquid and solid products together, a generalized linear mixed model with a binomial distribution and a logistic link function was used, with identity included as a random factor.

[3] = parameters: method as in PMID 30977921; details: cited from earlier work
[4] = 62 g of oat flakes, solid oat product (62 g oat flakes)
[5] = 196 mL of oat drink, liquid oat product (196 mL oat drink)
[6] = in the presence of whey protein
[7] = control samples (digestion without proteins)

O=C(/C=C/c1ccc(O)cc1)Nc1ccc(O)cc1C(=O)O [AVA 2p]
Cmax ([1]; 62 g of oat flakes, solid): 20 ± 2.12 nM
half-life ([1]; 62 g of oat flakes, solid): 1.42 ± 0.11 h
k el ([1]; 62 g of oat flakes, solid): 0.000136 s⁻¹
Cmax ([1]; 196 mL of oat drink, liquid): 4.94 ± 0.5 nM
half-life ([1]; 196 mL of oat drink, liquid): 1.3 h
k el ([1]; 196 mL of oat drink, liquid): 0.000144 s⁻¹
Tmax [1, 4]: 1.91 ± 0.08 h
Tmax [1, 5]: 1.21 ± 0.05 h
V, population estimate (RSE%) ([1]; liquid): 113 (16) L
ka, population estimate (RSE%) ([1]; liquid): 2.8 (9) 1/h
ke, population estimate (RSE%) ([1]; liquid): 0.52 (10) 1/h
T1/2 ([1]; liquid): 1.33 ± 0.10 h
ka ([1]; liquid): 2.8 ± 0.2^1 1/h
V/F ([1]; liquid): 111 ± 11^1
V, population estimate (RSE%) ([1]; solid): 220 (22) L
ka, population estimate (RSE%) ([1]; solid): 1.6 (10) 1/h
ke, population estimate (RSE%) ([1]; solid): 0.44 (17) 1/h
ka ([1]; solid): 1.50 ± 0.08 h⁻¹
V/F ([1]; solid): 250 ± 26
association between F. prausnitzii abundance at baseline and Cmax and AUC [2]: no significant associations
change of bioaccessibility [3, 6]: slight increase

O=C(/C=C/c1ccc(O)c(O)c1)Nc1ccc(O)cc1C(=O)O [AVA 2c]
Cmax ([1]; 62 g of oat flakes, solid): 4.91 ± 0.52 nM
half-life ([1]; 62 g of oat flakes, solid): 2.13 ± 0.16 h
k el ([1]; 62 g of oat flakes, solid): 9.17e-05 s⁻¹
Cmax ([1]; 196 mL of oat drink, liquid): 1.16 ± 0.12 nM
half-life ([1]; 196 mL of oat drink, liquid): 1.58 ± 0.12 h
k el ([1]; 196 mL of oat drink, liquid): 0.000122 s⁻¹
Tmax [1, 4]: 1.37 ± 0.06 h
Tmax [1, 5]: 0.73 ± 0.03 h
V, population estimate (RSE%) ([1]; liquid): 500 (19) L
ka, population estimate (RSE%) ([1]; liquid): 5.9 (18) 1/h
ke, population estimate (RSE%) ([1]; liquid): 0.43 (17) 1/h
ka ([1]; liquid): 6.0 ± 0.3^1 1/h
V/F ([1]; liquid): 430 ± 42^2
V, population estimate (RSE%) ([1]; solid): 720 (22) L
ka, population estimate (RSE%) ([1]; solid): 2.8 (10) 1/h
ke, population estimate (RSE%) ([1]; solid): 0.31 (17) 1/h
ka ([1]; solid): 2.8 ± 0.16 h⁻¹
V/F ([1]; solid): 698 ± 71
association between F. prausnitzii abundance at baseline and Cmax and AUC [2]: no significant associations
bioaccessibility, times lower compared to AVA 2f [3, 7]: 3.9 times
bioaccessibility, times lower compared to AVA 2p [3, 7]: 4.6 times
bioaccessibility, times increase [3, 6]: 3.6 times

COc1cc(/C=C/C(=O)Nc2ccc(O)cc2C(=O)O)ccc1O [AVA 2f]
Cmax ([1]; 62 g of oat flakes, solid): 2.1 ± 0.22 nM
half-life ([1]; 62 g of oat flakes, solid): 2.28 ± 0.18 h
k el ([1]; 62 g of oat flakes, solid): 8.33e-05 s⁻¹
Cmax ([1]; 196 mL of oat drink, liquid): 0.69 ± 0.07 nM
half-life ([1]; 196 mL of oat drink, liquid): 3.2 h
k el ([1]; 196 mL of oat drink, liquid): 6.11e-05 s⁻¹
Tmax [1, 4]: 1.11 ± 0.05 h
Tmax [1, 5]: 0.98 ± 0.04 h
V, population estimate (RSE%) ([1]; liquid): 1600 (34) L
ka, population estimate (RSE%) ([1]; liquid): 4.8 (3) 1/h
T1/2 ([1]; liquid): 3.19 ± 0.25^2 h
ka ([1]; liquid): 5.0 ± 0.3^2 1/h
V/F ([1]; liquid): 1641 ± 168^2
V, population estimate (RSE%) ([1]; solid): 2600 (5) L
ka, population estimate (RSE%) ([1]; solid): 3.8 (26) 1/h
ka ([1]; solid): 3.8 ± 0.21 h⁻¹
V/F ([1]; solid): 2561 ± 262
association between F. prausnitzii abundance at baseline and Cmax and AUC [2]: no significant associations
change of bioaccessibility [3, 6]: slight increase
